# Experimental data as given in patent US6509011B1, “Method of hair treatment using organic amino compounds” (Unilever Home & Personal Care USA, division of Conopco, Inc., priority 1999, dated 2003).
# Assay: Cuticle abrasion of treated hair switches
# Description: Cuticle abrasion and sensory experiments were performed on bleached hair with unbleached “virgin” hair as a control.
# A shampoo base was used to treat hair switches:
# Two samples of the above formulation were prepared, with the addition of 0.2% arginine to one of the samples.
# Four sets of switches were used and treated as follows:
# Set 1. Bleached switches washed 6 times in base, with final base wash containing 0.2% arginine.
# Set 2. Bleached switches based washed 6 times in base with 0.2% arginine
# Set 3. Bleached switches washed 6 times in base without 0.2% arginine
# Set 4. Unbleached virgin hair washed in base without arginine.
# The treated samples were subjected to cuticle abrasion (in duplicate).
compound,measurement,setting,value
N=C(N)NCCC[C@H](N)C(=O)O [arginine],cuticle cohesion after cuticle abrasion,"set 1: bleached switches washed 6 times in base, only final wash containing 0.2% arginine",evidence of improved cuticle cohesion
same,amount of cuticle removed by abrasion,"set 1: bleached switches washed 6 times in base, only final wash containing 0.2% arginine, compared with set 3 (no arginine)",Significantly less cuticle was removed than set 3
same,removed cuticle sample size and appearance,set 2: bleached switches washed 6 times in shampoo base with 0.2% arginine,closer in sample size and appearance to the unbleached sample
same,cuticle cohesion after cuticle abrasion,"set 2: bleached switches washed 6 times in shampoo base with 0.2% arginine, compared with set 3 (base without arginine)",significantly better cuticle cohesion
